Values joined by “and” are separate entries in the source; they are usually repeats but may differ in a detail not shown here. Equal entries are not always repeated.
Experiment: solvent given as SMILES

CC1=[N+]2C(=C(c3ccccc3C)c3ccc(C)n3[B-]2(F)F)C=C1c1cc2n(c1)[B-](F)(F)[N+]1=CC=CC1=C2c1c(C)cc(C)cc1C
fluorescence lifetime (in C1CCCCC1): 2.84 ns | fluorescence lifetime (in CCOC(C)=O): 0.81 ns

Cc1ccc(-c2ccc(/C=C/c3ccccc3)cn2)nc1
fluorescence lifetime (in CC#N): 1.06 ns

Nc1cccc[nH+]1
fluorescence lifetime (in O): 11.2 ns

COC(=O)c1ccc(-c2nc3ccc(N(C)C)cc3s2)cc1
fluorescence lifetime (in C1CCCCC1): 2.4 ns

CCN(CC)c1ccc(C=Cc2nc3nc4ccccc4nc3s2)c(OC)c1
fluorescence lifetime (in CCCCCCC(C)O): 0.977 ns | fluorescence lifetime (in CCOC(C)=O): 0.96 ns | fluorescence lifetime (in CO): 0.04 ns | fluorescence lifetime (in CS(C)=O): 0.41 ns | fluorescence lifetime (in Cc1ccccc1): 0.27 ns | fluorescence lifetime (in ClC(Cl)Cl): 0.97 ns | fluorescence lifetime (in ClCCl): 1.29 ns

Fc1ccc(/C=C/c2nc3c4ccccc4c4ccccc4c3o2)cc1
fluorescence lifetime (in CC#N): 1.88 ns

CCN(CC)c1ccc2c(c1)OC1=CC(N(CC)CC)C=CC1[C+]2c1ccccc1C(=O)O (stereo unspecified)
fluorescence lifetime (in CC(C)O): 2.69 ns | fluorescence lifetime (in CCCCCCCCO): 3.18 ns | fluorescence lifetime (in CCCCCCO): 3.09 ns | fluorescence lifetime (in CCCCO): 2.98 ns | fluorescence lifetime (in CCCO): 2.79 ns | fluorescence lifetime (in CCO): 2.45 ns | fluorescence lifetime (in CO): 2.15 ns | fluorescence lifetime (in O): 1.52 ns | fluorescence lifetime (in [2H]O[2H]): 1.64 ns

COc1ccc(Nc2nc(/C=C/c3ccccc3)[n+]([O-])c3c2CCCC3)cc1
fluorescence lifetime (in ClCCl): 8.2 ns

CCCCN1C(=O)c2cc(Br)c3c4c(Br)cc5c6c(cc(Br)c(c7c(Br)cc(c2c37)C1=O)c64)C(=O)N(CCCC)C5=O
fluorescence lifetime (in ClC(Cl)Cl): 2.9 ns

NCCc1c[nH]c2ccc(O)cc12
fluorescence lifetime (in CC#N): 4.1 ns | fluorescence lifetime (in CC(C)O): 4.28 ns | fluorescence lifetime (in CO): 4.04 ns | fluorescence lifetime (in O): 3.94 ns

COc1ccc2c(c1)C(=O)c1cc(OC)cc(OC)c1-2
fluorescence lifetime (in C1CCCCC1): 1.3 ns | fluorescence lifetime (in CC#N): 0.6 ns

O=C1c2ccccc2-c2cccc(O)c21
fluorescence lifetime (in C1CCCCC1): 1.24 ns | fluorescence lifetime (in C1COCCO1): 3.38 ns | fluorescence lifetime (in CC#N): 9.67 ns | fluorescence lifetime (in CC(C)O): 5.5 ns | fluorescence lifetime (in CCCCO): 5.22 ns | fluorescence lifetime (in CCCO): 4.82 ns | fluorescence lifetime (in CCO): 4.85 ns | fluorescence lifetime (in CCOC(C)=O): 5.48 ns | fluorescence lifetime (in CCOCC): 2.39 ns | fluorescence lifetime (in CO): 3.61 ns

Cc1ccc(/C2=C3N=C(C(c4ccccc4)=C/3c3ccccc3)/C(c3ccc(C)cc3)=c3\[nH]/c(c(-c4ccccc4)c3-c3ccccc3)=C(/c3ccc(C)cc3)C3=N/C(=C(/c4ccc(C)cc4)c4[nH]c2c(-c2ccccc2)c4-c2ccccc2)C(c2ccccc2)=C3c2ccccc2)cc1
fluorescence lifetime (in ClCCl): 0.472 ns

Cc1cc(C)c(C2=C3C=CC=[N+]3[B-]3(F)Oc4cc(O)cc5c6ccc(C)cc6c6cc2n3c6c45)c(C)c1 (stereo unspecified)
fluorescence lifetime (in ClC(Cl)Cl): 4 ns

COC(=O)c1cc(=O)n(Cc2ccccc2)c2cc(-c3ccc(N(C)C)cc3)sc12
fluorescence lifetime (in ClCCl): 1.86 ns

COc1ccc(-c2oc3cccc4c5c(-c6ccc(OC)cc6)c(=N)oc6cccc(c2c34)c65)cc1
fluorescence lifetime (in ClC(Cl)Cl): 1.5 ns

CC1(C)c2ccccc2N(c2ccccc2)c2ccc(-c3ccc(-c4ccc5c(c4)C(C)(C)c4ccccc4N5c4ccccc4)c4nsnc34)cc21
fluorescence lifetime (in c1ccc2c(c1)c1ccccc1n2-c1ccc(-c2ccc(-n3c4ccccc4c4ccccc43)cc2)cc1): 7.2 ns

Cc1ccc(-c2ccc(/C=C/c3ccc(C#N)cc3)cn2)nc1
fluorescence lifetime (in CC#N): 0.6 ns

CCCCn1c2ccccc2c2c1c1c3ccccc3n(CCCC)c1c1c3ccccc3n(CCCC)c21
fluorescence lifetime (in C1CCOC1): 6 ns

CCC1(CC)c2ccccc2-c2c1c1c(c3c2C(CC)(CC)c2cc(N(c4ccccc4)c4ccccc4)ccc2-3)C(CC)(CC)c2ccccc2-1
fluorescence lifetime (in C1CCOC1): 1.6 ns

CC(C)(C)c1ccc2c(c1)sc1[n+]2[B-](F)(F)n2c(c3cccc4cccc2c43)=C1C#N
fluorescence lifetime (in ClCCl): 6 ns

CCCCc1cc(-c2cccc(COC)c2)oc1-c1cccc(-c2cc(CCCC)c(-c3cccc(-c4oc(-c5cccc(-c6oc(-c7cccc(COC)c7)cc6CCCC)c5)cc4CCCC)c3)o2)c1
fluorescence lifetime (in ClC(Cl)Cl): 1.35 ns

F[B-]1(F)Oc2ccc(Br)cc2-c2c3c(c4c([n+]21)CCc1ccccc1-4)CCc1ccccc1-3
fluorescence lifetime (in ClCCl): 0.41 ns

N#Cc1cnc(-c2c3ccccc3c(-c3ccccc3)c3ccccc23)nc1
fluorescence lifetime (in CCO): 0.25 ns | fluorescence lifetime (in ClCCl): 0.4 ns

c1ccc(N(c2ccccc2)c2ccc(-c3ccc4c(c3)C3(c5ccccc5Oc5ccccc53)c3cc(-c5ccc(N(c6ccccc6)c6ccccc6)cc5)ccc3-4)cc2)cc1
fluorescence lifetime (in ClCCl): 1.2 ns

OB(O)c1ccc(-c2ccc(N(c3ccccc3)c3ccccc3)cc2)cc1
fluorescence lifetime (in C1CCCCC1): 1.59 ns | fluorescence lifetime (in C1CCOC1): 2.14 ns | fluorescence lifetime (in CC#N): 2.24 ns | fluorescence lifetime (in CCO): 2.39 ns | fluorescence lifetime (in CCOC(C)=O): 2.21 ns | fluorescence lifetime (in CCOCC): 1.69 ns | fluorescence lifetime (in CO): 2.97 ns

CCCCCCCCN1C(=O)c2ccc3c4c(-c5ccc6c(c5)c5ccccc5n6-c5ccccc5)cc5c6c(cc(-c7ccc8c(c7)c7ccccc7n8-c7ccccc7)c(c7ccc(c2c37)C1=O)c64)C(=O)N(CCCCCCCC)C5=O
fluorescence lifetime (in ClC(Cl)Cl): 4.1 ns

COC(=O)c1cc(=O)n(C)c2cc(-c3ccccc3OC)sc12
fluorescence lifetime (in ClCCl): 1.31 ns

COc1cccc2cc(C#N)c(=N)oc12
fluorescence lifetime (in ClCCl): 0.4 ns

O=S(=O)([O-])c1ccc([O-])c2ccccc12
fluorescence lifetime (in O): 15 ns

COc1ccc(-c2nc3ccccc3nc2/C=C/N2CCCC2)s1
fluorescence lifetime (in C1CCCCC1): 0.79 ns | fluorescence lifetime (in C1CCOC1): 2.79 ns | fluorescence lifetime (in CC#N): 5.78 ns | fluorescence lifetime (in CC(C)=O): 5.1 ns | fluorescence lifetime (in CCO): 0.67 ns | fluorescence lifetime (in CO): 0.22 ns | fluorescence lifetime (in CS(C)=O): 4.88 ns | fluorescence lifetime (in Cc1ccccc1): 1.25 ns | fluorescence lifetime (in ClCCl): 3.28 ns

Cc1ccc2c(c1)C1(c3ccccc3Oc3ccccc31)c1cc(C)ccc1N2c1ccc(-c2ncccn2)cc1
fluorescence lifetime (in O=P(c1ccccc1)(c1ccccc1)c1ccc2oc3ccc(P(=O)(c4ccccc4)c4ccccc4)cc3c2c1): 11 ns

OCc1cc2c(cc3ccc4cccc5ccc2c3c45)[nH]1
fluorescence lifetime (in CCOC(C)=O): 2.64 ns

Cn1nc(-c2ccccc2)c2n[nH]nc2c1=O
fluorescence lifetime (in CC#N): 2 ns | fluorescence lifetime (in CCO): 1.9 ns | fluorescence lifetime (in Cc1ccccc1): 1.2 ns

O=c1oc2ccccc2cc1/C=C/c1ccc([N+](=O)[O-])cc1
fluorescence lifetime (in CC#N): 0.08 ns

c1ccc(C[n+]2cc3ccc4c[n+](Cc5ccccc5)cc5ccc(c2)c3c45)cc1
fluorescence lifetime (in CC#N): 4.3 ns

COC(=O)c1ccc(-c2ccc3c(c2)C(=O)c2cc(-c4ccc(C(=O)OC)cc4)ccc2-3)cc1
fluorescence lifetime (in C1CCOC1): 2.3 ns

Nc1ccccc1C(=O)O
fluorescence lifetime (in C1CCCCC1): 5.7 ns | fluorescence lifetime (in CC#N): 6.9 ns | fluorescence lifetime (in CCO): 7.6 ns | fluorescence lifetime (in CS(C)=O): 8.7 ns | fluorescence lifetime (in O): 8.6 ns and 8.7 ns | fluorescence lifetime (in OCC(F)(F)F): 5.4 ns | fluorescence lifetime (in c1ccccc1): 6.3 ns

CC1=CC(C)=[N+]2C1=Cc1c3ccccc3c(C#Cc3ccc(F)cc3)n1[B-]2(F)F
fluorescence lifetime (in CCCCCC): 5.44 ns | fluorescence lifetime (in CCCCCCCCO): 5.07 ns | fluorescence lifetime (in CCOC(C)=O): 5.32 ns | fluorescence lifetime (in CN(C)C=O): 4.92 ns

c1ccc2c(-c3ccc4sc5ccc(-c6c7ccccc7cc7ccccc67)cc5c4c3)c3ccccc3cc2c1
fluorescence lifetime (in C1CCCCC1): 3.9 ns | fluorescence lifetime (in CC#N): 4.3 ns | fluorescence lifetime (in ClCCl): 4.7 ns

Cc1cccc2nc3c(=O)[nH]c(=O)[nH]c3nc12
fluorescence lifetime (in C1COCCO1): 0.5 ns | fluorescence lifetime (in CC#N): 0.7 ns | fluorescence lifetime (in CCO): 1.35 ns | fluorescence lifetime (in CO): 1.6 ns | fluorescence lifetime (in ClCCCl): 0.74 ns | fluorescence lifetime (in O): 7.3 ns

Nc1ccccc1/C=C/C(F)(F)F
fluorescence lifetime (in C1CCOC1): 7.32 ns

CC(C)c1cc(C(C)C)c(B2c3cc(N4c5ccccc5C(C)(C)c5ccccc54)ccc3N(c3ccccc3)c3ccc(N4c5ccccc5C(C)(C)c5ccccc54)cc32)c(C(C)C)c1
fluorescence lifetime (in c1cc(-c2cccc(-n3c4ccccc4c4ccccc43)c2)cc(-n2c3ccccc3c3ccccc32)c1): 17 ns

N#Cc1cc(-n2c3ccccc3c3cccnc32)c(-n2c3ccccc3c3cccnc32)cc1C#N
fluorescence lifetime (in c1cc(-n2c3ccccc3c3ccccc32)cc(-n2c3ccccc3c3ccccc32)c1): 86 ns

F[B-]1(F)OC(C#Cc2ccccc2)=CC(c2ccccc2)=[O+]1
fluorescence lifetime (in ClCCl): 0.94 ns

Source: the Deep4Chem optical property database
